Consider 32 compounds from patent publication US20210387966A1, “2-AMINO-N-HETEROARYL-NICOTINAMIDES AS NAV1.8 INHIBITORS” (Merck Sharp & Dohme Corp., priority 2018, published 2021).

The target in the test is T1, human Nav1.8 channels (Homo sapiens, UniProt Q9Y5Y9).
T1 construct: expressed in transfected cells
T1 sequence (Q9Y5Y9 whole entry): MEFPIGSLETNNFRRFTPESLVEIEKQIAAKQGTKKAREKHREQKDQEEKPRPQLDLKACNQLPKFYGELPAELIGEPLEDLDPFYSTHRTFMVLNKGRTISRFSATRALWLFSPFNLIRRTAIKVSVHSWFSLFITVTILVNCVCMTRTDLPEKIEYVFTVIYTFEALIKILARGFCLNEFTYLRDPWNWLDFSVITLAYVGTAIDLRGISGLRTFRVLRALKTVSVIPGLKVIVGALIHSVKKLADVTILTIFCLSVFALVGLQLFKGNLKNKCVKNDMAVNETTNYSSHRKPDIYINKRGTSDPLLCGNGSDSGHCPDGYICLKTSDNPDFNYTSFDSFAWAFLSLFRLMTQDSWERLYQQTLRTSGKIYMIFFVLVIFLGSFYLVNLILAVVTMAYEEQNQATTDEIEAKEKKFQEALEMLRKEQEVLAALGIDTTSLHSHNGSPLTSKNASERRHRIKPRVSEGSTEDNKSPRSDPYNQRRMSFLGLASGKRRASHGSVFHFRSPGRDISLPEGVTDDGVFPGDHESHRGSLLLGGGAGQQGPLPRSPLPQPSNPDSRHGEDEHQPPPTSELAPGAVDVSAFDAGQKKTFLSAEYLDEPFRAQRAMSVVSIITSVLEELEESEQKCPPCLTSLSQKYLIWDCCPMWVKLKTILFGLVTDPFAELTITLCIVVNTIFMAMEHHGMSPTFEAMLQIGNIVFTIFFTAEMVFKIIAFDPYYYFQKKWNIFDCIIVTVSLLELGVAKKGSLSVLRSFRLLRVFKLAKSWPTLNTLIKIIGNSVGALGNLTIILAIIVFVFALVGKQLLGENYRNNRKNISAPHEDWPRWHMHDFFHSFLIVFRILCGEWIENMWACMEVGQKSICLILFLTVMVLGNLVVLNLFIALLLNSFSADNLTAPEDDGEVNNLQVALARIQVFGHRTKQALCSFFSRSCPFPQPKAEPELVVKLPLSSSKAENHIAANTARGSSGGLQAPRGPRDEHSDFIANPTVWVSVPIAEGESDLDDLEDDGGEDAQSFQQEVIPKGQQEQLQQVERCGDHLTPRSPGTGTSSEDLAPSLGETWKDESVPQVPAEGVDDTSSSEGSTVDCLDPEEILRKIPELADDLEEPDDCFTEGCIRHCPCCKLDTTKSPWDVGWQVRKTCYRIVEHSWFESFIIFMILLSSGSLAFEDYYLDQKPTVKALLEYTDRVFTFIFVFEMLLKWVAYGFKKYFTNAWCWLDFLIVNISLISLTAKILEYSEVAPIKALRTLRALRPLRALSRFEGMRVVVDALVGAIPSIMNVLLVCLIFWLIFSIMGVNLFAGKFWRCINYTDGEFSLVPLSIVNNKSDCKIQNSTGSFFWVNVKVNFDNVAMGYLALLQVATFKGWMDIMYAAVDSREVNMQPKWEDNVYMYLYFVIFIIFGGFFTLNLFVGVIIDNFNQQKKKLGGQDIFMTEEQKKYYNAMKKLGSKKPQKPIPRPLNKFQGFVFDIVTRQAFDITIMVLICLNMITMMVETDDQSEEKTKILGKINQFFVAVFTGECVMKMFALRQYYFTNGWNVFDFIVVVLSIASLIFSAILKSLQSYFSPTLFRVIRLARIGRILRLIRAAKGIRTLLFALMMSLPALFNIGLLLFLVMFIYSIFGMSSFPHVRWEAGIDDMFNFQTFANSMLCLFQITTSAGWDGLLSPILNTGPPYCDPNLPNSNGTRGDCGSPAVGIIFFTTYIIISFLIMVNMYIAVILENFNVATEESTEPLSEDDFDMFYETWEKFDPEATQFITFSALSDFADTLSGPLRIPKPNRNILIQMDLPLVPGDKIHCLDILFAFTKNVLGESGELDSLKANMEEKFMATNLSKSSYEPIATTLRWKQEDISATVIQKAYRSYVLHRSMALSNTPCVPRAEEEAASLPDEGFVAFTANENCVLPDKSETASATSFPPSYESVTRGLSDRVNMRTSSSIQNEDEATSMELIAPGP
As to the kind of experiment: Nav1.8 Qube automated patch-clamp assay. The settings on record: human Nav1.8 stably expressed in HEK 293 cells; whole-cell voltage clamp, room temperature; resting or inactivated state not specified; read-out: IC50 values (nM) for Examples in the Nav1.8 Qube Assay. It counts as cell-based. The method, boiled down: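 Whole-cell patch clamp at room temperature on HEK293 cells stably expressing human Nav1.8. A 1 Hz train of ten 20 ms pulses to 10 mV from −90 mV holding, with −67 mV repolarization, was applied; first- and tenth-pulse peak currents gave resting and inactivated-state IC50s by Hill fitting.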
In general terms: The patch-clamp technique gives a direct electrical read-out from membranes.
In general, IC50 refers to the point on the concentration scale where inhibition reaches its midpoint. Regarding `CC1CC(F)(F)CCN1c1ncc(C(F)(F)F)cc1C(=O)Nc1ccnc(S(N)(=O)=O)c1` (single isomer, unassigned) [Example 74, (S or R)-2-(4,4-difluoro-2-methylpiperidin-1-yl)-N-(2-sulfamoylpyridin-4-yl)-5-(trifluoromethyl)nicotinamide], the IC50 was 319 nM. With `NS(=O)(=O)c1cc(NC(=O)c2cc(C(F)(F)F)cnc2N2CC3CC(F)(F)C3C2)ccn1` (single isomer, unassigned) [Example 65, 2-((1S,5R or 1R,5S)-6,6-difluoro-3-azabicyclo[3.2.0]heptan-3-yl)-N-(2-sulfamoylpyridin-4-yl)-5-(trifluoromethyl)nicotinamide] the figure was 94 nM. The same measure for `C[C@H]1CN(c2ncc(C(F)(F)F)cc2C(=O)Nc2ccnc(S(N)(=O)=O)c2)CCO1` [Example 110, 2-[(2S)-2-methylmorpholin-4-yl]-N-(2-sulfamoyl-4-pyridyl)-5-(trifluoromethyl)pyridine-3-carboxamide]: 505 nM; for `COc1nc(N2CCCC(F)(F)CC2)c(C(=O)Nc2ccnc(S(N)(=O)=O)c2)cc1Cl` [Example 41, 5-chloro-2-(4,4-difluoroazepan-1-yl)-6-methoxy-N-(2-sulfamoylpyridin-4-yl)pyridine-3-carboxamide]: 5.1 nM. With `C[C@@H]1CN(c2ncc(C(F)(F)F)cc2C(=O)Nc2ccnc(S(N)(=O)=O)c2)C[C@@H](C(F)(F)F)O1` [Example 102, 2-((2R,6S)-2-methyl-6-(trifluoromethyl)morpholino)-N-(2-sulfamoylpyridin-4-yl)-5-(trifluoromethyl)nicotinamide] the figure was 27 nM. `N#Cc1cc(NC(=O)c2cc(C(F)(F)F)cnc2N2C[C@H]3CC[C@H]3C2)ccn1` [Example 153, 2-[(1R,5S)-3-azabicyclo[3.2.0]heptan-3-yl]-N-(2-cyano-4-pyridyl)-5-(tri-fluoromethyl)pyridine-3-carboxamide]: the IC50 is 310 nM.

In the case of `CC1CN(c2ncc(C(F)(F)F)cc2C(=O)Nc2ccnc(S(N)(=O)=O)c2)CC(C)C1O` [Example 78, 2-[(3S,4r,5R)-4-hydroxy-3,5-dimethyl-1-piperidyl]-N-(2-sulfamoyl-4-pyridyl)-5-(trifluoromethyl)pyridine-3-carboxamide], the concentration for half-maximal inhibition (IC50) came out at 5080 nM. The same measure for `COc1cc(NC(=O)c2cc(C(F)(F)F)cnc2N2CCCC(F)(F)CC2)ccn1` [Example 146, 2-(4,4-difluoroazepan-1-yl)-N-(2-methoxy-4-pyridyl)-5-(trifluoro-methyl)pyridine-3-carboxamide]: 177 nM; for `NS(=O)(=O)c1cc(NC(=O)c2cc(C(F)(F)F)cnc2N2CCCC(CO)C2)ccn1` (centres unmarked) [Example 7, 2-(3-(hydroxymethyl)piperidin-1-yl)-N-(2-sulfamoylpyridin-4-yl)-5-(trifluoromethyl)nicotinamide]: 2830 nM; for `CS(=O)(=O)c1cc(NC(=O)c2cc(C(F)(F)F)cnc2N2CCCCCC2)ccn1` [Example 140, 2-(azepan-1-yl)-N-(2-methylsulfonyl-4-pyridyl)-5-(trifluoromethyl)-pyridine-3-carboxamide]: 91 nM. The same measure for `NS(=O)(=O)c1cc(NC(=O)c2cc(C3CC3)c(C3CC3)nc2N2CCC(F)(F)CC2)ccn1` [Example 12, 5,6-dicyclopropyl-2-(4,4-difluoropiperidin-1-yl)-N-(2-sulfamoylpyridin-4-yl)nicotinamide]: 94 nM; for `Cc1nc(C2CCCCCC2)c(C(=O)Nc2ccnc(S(N)(=O)=O)c2)c(C)c1Cl` [Example 217, 5-chloro-2-cycloheptyl-4,6-dimethyl-N-(2-sulfamoylpyridin-4-yl)nicotinamide]: 3.2 nM. On to `NS(=O)(=O)c1cc(NC(=O)c2cc(C(F)(F)F)cnc2N2CCC(C(F)(F)F)C2)ccn1` (centres unmarked) [Example 128, N-(2-sulfamoylpyridin-4-yl)-5-(trifluoromethyl)-2-[3-(trifluoromethyl)pyrrolidin-1-yl]pyridine-3-carboxamide], for which the IC50 came out at 94 nM.

For `NS(=O)(=O)c1cc(NC(=O)c2cc(C(F)(F)F)cnc2N2CCc3cccc(C(F)(F)F)c3C2)ccn1` [Example 89, N-(2-sulfamoyl-4-pyridyl)-5-(trifluoromethyl)-2-[8-(trifluoromethyl)-3,4-dihydro-1H-isoquinolin-2-yl]pyridine-3-carboxamide], the IC50 was 275 nM. As for `NS(=O)(=O)c1cc(NC(=O)c2cc(C(F)(F)F)cnc2N2CC(F)(F)C(F)(F)C2)ccn1` [Example 92, N-(2-sulfamoyl-4-pyridyl)-2-(3,3,4,4-tetrafluoropyrrolidin-1-yl)-5-(trifluoromethyl)pyridine-3-carboxamide], the IC50 worked out at 659 nM. `CC1(C)CN(c2ncc(C(F)(F)F)cc2C(=O)Nc2ccnc(S(N)(=O)=O)c2)CC(C(F)(F)F)O1` (single isomer, unassigned) [Example 136, (S or R)-2-(2,2-dimethyl-6-(trifluoromethyl)-morpholino)-N-(2-sulfamoylpyridin-4-yl)-5-(trifluoromethyl)nicotinamide]: the IC50 was 494 nM. With `CC12CCN(c3ncc(C(F)(F)F)cc3C(=O)Nc3ccnc(S(N)(=O)=O)c3)CC1C2(F)F` (single isomer, unassigned) [Example 61, 2-[(1S,6S or 1R,6R)-7,7-difluoro-6-methyl-3-azabicyclo[4.1.0]heptan-3-yl]-N-(2-sulfamoyl-4-pyridyl)-5-(trifluoromethyl)pyridine-3-carboxamide] the figure was 15 nM; with `N#Cc1noc(NC(=O)c2cc(C(F)(F)F)cnc2N2CCCCCC2)n1` [Example 45, 2-(azepan-1-yl)-N-(3-cyano-1,2,4-oxadiazol-5-yl)-5-(trifluoromethyl)pyridine-3-carboxamide], 1790 nM.

As for `Cc1cncc(NC(=O)c2cc(C(F)(F)F)cnc2N2CCCCCC2)c1` [Example 195, 2-(azepan-1-yl)-N-(5-methyl-3-pyridyl)-5-(tri-fluoromethyl)-pyridine-3-carboxamide], the IC50 was determined as 2770 nM. The same measure for `N#Cc1cncc(NC(=O)c2cc(C(F)(F)F)cnc2N2CCCCCC2)c1` [Example 193, 2-(azepan-1-yl)-N-(5-cyano-3-pyridyl)-5-(trifluoromethyl)-pyridine-3-carboxamide]: 654 nM. In the case of `CC1(C)CN(c2ncc(C(F)(F)F)cc2C(=O)Nc2ccnc(S(N)(=O)=O)c2)CCCO1` [Example 107, 2-(2,2-dimethyl-1,4-oxazepan-4-yl)-N-(2-sulfamoyl-4-pyridyl)-5-(trifluoromethyl)pyridine-3-carboxamide], the IC50 came to 139 nM.

In the case of `NS(=O)(=O)c1cc(NC(=O)c2cccnc2N2CCC(F)(F)CC2)ccn1` [Example 26, 2-(4,4-difluoropiperidin-1-yl)-N-(2-sulfamoylpyridin-4-yl)nicotinamide], the half-maximal inhibitory concentration (IC50) came to 1860 nM. With `NS(=O)(=O)c1cc(NC(=O)c2cc(C3CC3)nnc2N2CCCC(F)(F)CC2)ccn1` [Example 39, 6-cyclopropyl-3-(4,4-difluoroazepan-1-yl)-N-(2-sulfamoylpyridin-4-yl)pyridazine-4-carboxamide] the figure was 441 nM; with `CC(C)(C)NS(=O)(=O)c1cc(NC(=O)c2cc(Cl)cnc2N2CCCC(F)(F)CC2)ccn1` [Example 109, N-[2-(tert-butylsulfamoyl)-4-pyridyl]-5-chloro-2-(4,4-difluoroazepan-1-yl)pyridine-3-carboxamide], 289 nM.

For the compound `COc1ccc(C(=O)Nc2cncc(S(N)(=O)=O)c2)c(N2CCCC(F)(F)CC2)n1` [Example 192, 2-(4,4-difluoroazepan-1-yl)-6-methoxy-N-(5-sulfamoyl-3-pyridyl)pyridine-3-carboxamide], the IC50 was determined as 163 nM. With `CC1CN(c2nc(C(F)(F)F)c(Cl)cc2C(=O)Nc2ccnc(S(N)(=O)=O)c2)CCC1(F)F` (single isomer, unassigned) [Example 165, (R or S)-5-chloro-2-(4,4-difluoro-3-methylpiperidin-1-yl)-N-(2-sulfamoylpyridin-4-yl)-6-(trifluoromethyl)nicotinamide] the figure was 2.1 nM; with `Cc1nc(N2CCCC(F)(F)CC2)c(C(=O)Nc2cnn(S(C)(=O)=O)c2)cc1Cl` [Example 31, 5-chloro-2-(4,4-difluoroazepan-1-yl)-6-methyl-N-[1-(methylsulfonyl)-1H-pyrazol-4-yl]pyridine-3-carboxamide], 4.1 nM; with `NS(=O)(=O)c1cc(NC(=O)c2cc(C(F)(F)F)cnc2N2CCSCC2)ccn1` [Example 84, N-(2-sulfamoyl-4-pyridyl)-2-thiomorpholino-5-(trifluoromethyl)pyridine-3-carboxamide], 147 nM. For the compound `NS(=O)(=O)c1cc(NC(=O)c2cc(C(F)(F)F)cnc2N2CCC3OCCC32)ccn1` (centres unmarked) [Example 96, 2-(2,3,3,a,5,6,6a-hexahydrofuro[3,2-b]pyrrol-4-yl)-N-(2-sulfamoyl-4-pyridyl)-5-(trifluoromethyl)pyridine-3-carboxamide], the 50% inhibitory concentration (IC50) was found to be 1620 nM. The same measure for `CC1(C)CN(c2ncc(C(F)(F)F)cc2C(=O)Nc2ccnc(S(N)(=O)=O)c2)CCO1` [Example 88, 2-(2,2-dimethylmorpholin-4-yl)-N-(2-sulfamoyl-4-pyridyl)-5-(trifluoromethyl)pyridine-3-carboxamide]: 275 nM; for `NS(=O)(=O)c1cc(NC(=O)c2cc(Br)cnc2N2CCC(F)(F)CC2)ccn1` [Example 204, 5-bromo-2-(4,4-difluoropiperidin-1-yl)-N-(2-sulfamoylpyridin-4-yl)nicotinamide]: 55 nM; for `NS(=O)(=O)c1cc(NC(=O)c2cc(N3CCCCC3)cnc2N2CCC(F)(F)CC2)ccn1` [Example 206, 2-(4,4-difluoropiperidin-1-yl)-5-(piperidin-1-yl)-N-(2-sulfamoylpyridin-4-yl)nicotinamide]: 363 nM.
